# Where “and” joins values, the source holds several entries; their conditions need not be identical. Identical values can stand only once. Results filed as inconclusive are left out.
# Tested on: nude mice, LX-1 lung xenograft intrarenal, tumor weight T/C
# Experiment: NCI In Vivo Anticancer Drug Screen. Data for tumor model Human Lung LX-1 Xenograft (intrarenal inoculation) in NU/NU Swiss (nude) mice
# Conditions: endpoint: mean tumor weight change, higher = larger tumour
# Outline: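 Antitumor effect is expressed as a ratio: the mean tumor measurement of the drug-treated group relative to that of the vehicle-dosed control group.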
# [1] = dose: 6.25 mg/kg/injection, schedule: Q01DX010 (sc), vehicle: saline
# [2] = dose: 12.5 mg/kg/injection, schedule: Q01DX010 (sc), vehicle: saline
# [3] = dose: 50.0 mg/kg/injection, schedule: Q01DX010 (sc), vehicle: saline
# [4] = dose: 100.0 mg/kg/injection, schedule: Q01DX010 (sc), vehicle: saline
# [5] = dose: 6.25 mg/kg/injection, schedule: Q04DX003 (sc), vehicle: saline
# [6] = dose: 12.5 mg/kg/injection, schedule: Q04DX003 (sc), vehicle: saline
# [7] = dose: 300.0 mg/kg/injection, schedule: Q04DX003 (sc), vehicle: Klucel (hydroxypropylcellulose) (HPC)
# [8] = dose: 600.0 mg/kg/injection, schedule: Q04DX003 (sc), vehicle: Klucel (hydroxypropylcellulose) (HPC)
# [9] = dose: 150.0 mg/kg/injection, schedule: Q04DX003 (sc), vehicle: saline
# [10] = dose: 300.0 mg/kg/injection, schedule: Q04DX003 (sc), vehicle: saline
# [11] = dose: 300.0 mg/kg/injection, schedule: Q04DX003 (sc), vehicle: saline with Tween-80
# [12] = dose: 25.0 mg/kg/injection, schedule: Q04DX003 (sc), vehicle: saline
# [13] = dose: 50.0 mg/kg/injection, schedule: Q04DX003 (sc), vehicle: saline
smiles,measurement,setting,value
Cc1c2ccncc2c(C)c2c1[nH]c1ccccc12,T/C,[1],24 % of control
same,T/C,[2],85 % of control
same,T/C,[3],72 % of control and 75 % of control
same,T/C,[4],59 % of control
CCOC(=O)NC1=C(N2CC2)C(=O)C(NC(=O)OCC)=C(N2CC2)C1=O,T/C,"dose: 0.78 mg/kg/injection, schedule: Q01DX010 (sc), vehicle: saline",67 % of control
same,T/C,"dose: 1.56 mg/kg/injection, schedule: Q01DX010 (sc), vehicle: saline",74 % of control
same,T/C,"dose: 1.56 mg/kg/injection, schedule: Q01DX010 (sc), vehicle: suspension in saline",56 % of control
same,T/C,"dose: 3.12 mg/kg/injection, schedule: Q04DX003 (sc), vehicle: suspension in saline",77 % of control
same,T/C,"dose: 3.13 mg/kg/injection, schedule: Q01DX010 (sc), vehicle: saline",81 % of control
same,T/C,"dose: 3.13 mg/kg/injection, schedule: Q01DX010 (sc), vehicle: suspension in saline",89 % of control
same,T/C,"dose: 3.13 mg/kg/injection, schedule: Q04DX003 (ip), vehicle: saline",64 % of control
same,T/C,[1],35 % of control
same,T/C,"dose: 6.25 mg/kg/injection, schedule: Q04DX003 (ip), vehicle: saline",96 % of control
same,T/C,[5],75 % of control
same,T/C,"dose: 6.25 mg/kg/injection, schedule: Q04DX003 (sc), vehicle: suspension in saline",65 % of control
same,T/C,"dose: 12.5 mg/kg/injection, schedule: Q04DX003 (ip), vehicle: saline",34 % of control
same,T/C,[6],71 % of control
same,T/C,"dose: 25.0 mg/kg/injection, schedule: Q04DX003 (ip), vehicle: saline",9 % of control
CCc1c(CC(=O)O)c2cc(C)ccc2n1Cc1ccc(Cl)cc1,T/C,[7],123 % of control
same,T/C,[8],82 % of control
same,T/C,"dose: 1200.0 mg/kg/injection, schedule: Q04DX003 (sc), vehicle: Klucel (hydroxypropylcellulose) (HPC)",92 % of control
same,T/C,"dose: 2400.0 mg/kg/injection, schedule: Q04DX003 (sc), vehicle: Klucel (hydroxypropylcellulose) (HPC)",50 % of control
C=C1C(C)C2C(Cc3ccccc3)NC(=O)C23C(OC(C)=O)/C=C/C(C)(O)CC(C)C/C=C/C3C1O (stereo not drawn),T/C,"dose: 6.25 mg/kg/injection, schedule: Q04DX003 (sc), vehicle: Klucel (hydroxypropylcellulose) (HPC)",112 % of control
same,T/C,"dose: 12.5 mg/kg/injection, schedule: Q04DX003 (sc), vehicle: Klucel (hydroxypropylcellulose) (HPC)",112 % of control
COc1cc(C)c2c(c1C=O)Oc1c(c(C)c(O)c3c1C(O)OC3=O)OC2=O (stereo not drawn),T/C,[2],95 % of control
same,T/C,"dose: 25.0 mg/kg/injection, schedule: Q01DX010 (sc), vehicle: saline",103 % of control
same,T/C,[3],59 % of control
same,T/C,[4],32 % of control
CN(N=O)C(=O)N[C@@H](C=O)[C@@H](O)[C@H](O)[C@H](O)CO,T/C,"dose: 75.0 mg/kg/injection, schedule: Q04DX003 (sc), vehicle: other",32 % of control
same,T/C,"dose: 75.0 mg/kg/injection, schedule: Q04DX003 (sc), vehicle: saline",39 % of control
same,T/C,"dose: 150.0 mg/kg/injection, schedule: Q04DX003 (sc), vehicle: other",10 % of control
same,T/C,[9],22 % of control
same,T/C,[10],-56 % of control
CCOC(=O)Nc1cc2c(c(N)n1)N=C(c1ccccc1)CN2,T/C,"dose: 3.12 mg/kg/injection, schedule: Q04DX003 (sc), vehicle: saline with Tween-80",68 % of control
same,T/C,"dose: 6.25 mg/kg/injection, schedule: Q04DX003 (sc), vehicle: saline with Tween-80",82 % of control and 96 % of control
same,T/C,"dose: 12.5 mg/kg/injection, schedule: Q04DX003 (sc), vehicle: saline with Tween-80",73 % of control
same,T/C,"dose: 25.0 mg/kg/injection, schedule: Q04DX003 (sc), vehicle: saline with Tween-80",30 % of control and 54 % of control
COC1=C(C)C(=O)C2=C(C1=O)C1C3CC4=C(C(=O)C(OC)=C(C)C4=O)C(CNC(=O)C(C)=O)N3C(C#N)C(C2)N1C (stereo not drawn),T/C,"dose: 1.0 mg/kg/injection, schedule: Q04DX003 (sc), vehicle: Klucel (hydroxypropylcellulose) (HPC)",111 % of control
same,T/C,"dose: 2.0 mg/kg/injection, schedule: Q04DX003 (sc), vehicle: Klucel (hydroxypropylcellulose) (HPC)",105 % of control
same,T/C,"dose: 4.0 mg/kg/injection, schedule: Q04DX003 (sc), vehicle: Klucel (hydroxypropylcellulose) (HPC)",59 % of control
C=C(C)[C@]12CC(C)C34OC(/C=C\C=C\CCCCCCCCC)(O[C@@H]1[C@@H]3[C@@H]1O[C@]1(CO)[C@@H](O)[C@]1(O)C(=O)C(C)=C[C@@H]41)O2 (stereo partly drawn),T/C,"dose: 3.0 mg/kg/injection, schedule: Q04DX003 (sc), vehicle: distilled water + alcohol",84 % of control
same,T/C,"dose: 6.0 mg/kg/injection, schedule: Q04DX003 (sc), vehicle: distilled water + alcohol",77 % of control
same,T/C,"dose: 12.0 mg/kg/injection, schedule: Q04DX003 (sc), vehicle: distilled water + alcohol",81 % of control
CN(C)C1C(=O)C(C(=O)NP(=O)(NCCCO)N(CCCl)CCCl)=C(O)C2(O)C(=O)C3=C(O)c4c(O)cccc4C(C)(O)C3CC12 (stereo not drawn),T/C,[11],47 % of control
CC1=NN(c2cccc(S(=O)(=O)O)c2)C(=O)C1N=Nc1cc(Cl)cc(S(=O)(=O)O)c1O.CC1=NN(c2cccc(S(=O)(=O)O)c2)C(=O)C1N=Nc1cc(Cl)cc(S(=O)(=O)O)c1O.[Cr] (stereo not drawn),T/C,[9],171 % of control
same,T/C,[10],152 % of control
same,T/C,"dose: 600.0 mg/kg/injection, schedule: Q04DX003 (sc), vehicle: saline",110 % of control
CCC(C)Nc1ccc(N)cc1 (stereo not drawn),T/C,"dose: 9.0 mg/kg/injection, schedule: Q04DX003 (sc), vehicle: Klucel (hydroxypropylcellulose) (HPC)",80 % of control
same,T/C,"dose: 18.0 mg/kg/injection, schedule: Q04DX003 (sc), vehicle: Klucel (hydroxypropylcellulose) (HPC)",104 % of control
Nc1n[n+](-c2ccccc2)no1,T/C,"dose: 37.5 mg/kg/injection, schedule: Q04DX003 (sc), vehicle: water",87 % of control
same,T/C,"dose: 75.0 mg/kg/injection, schedule: Q04DX003 (sc), vehicle: water",89 % of control
CC1=C(/C=C/C(C)=C/C=C/C(C)=C/C=O)C(C)(C)CCC1,T/C,"dose: 75.0 mg/kg/injection, schedule: Q04DX003 (sc), vehicle: saline with Tween-80",94 % of control
same,T/C,"dose: 150.0 mg/kg/injection, schedule: Q04DX003 (sc), vehicle: saline with Tween-80",68 % of control
same,T/C,[11],56 % of control and 74 % of control
same,T/C,"dose: 1200.0 mg/kg/injection, schedule: Q04DX003 (sc), vehicle: saline with Tween-80",57 % of control
COC(=O)[C@@]12OC[C@]34[C@H]([C@@H](O)[C@@H]1O)[C@@]1(C)CC(=O)C(O)=C(C)[C@@H]1C[C@H]3OC(=O)[C@H](OC(=O)/C=C(\C)C(C)C)[C@@H]24,T/C,"dose: 0.25 mg/kg/injection, schedule: Q04DX003 (sc), vehicle: saline + alcohol",115 % of control
same,T/C,"dose: 0.5 mg/kg/injection, schedule: Q01DX010 (sc), vehicle: saline + alcohol",101 % of control
same,T/C,"dose: 0.5 mg/kg/injection, schedule: Q04DX003 (sc), vehicle: saline + alcohol",91 % of control
same,T/C,"dose: 1.0 mg/kg/injection, schedule: Q04DX003 (sc), vehicle: saline + alcohol",114 % of control
same,T/C,"dose: 2.0 mg/kg/injection, schedule: Q04DX003 (sc), vehicle: saline + alcohol",59 % of control
NC(=O)c1ncn2c(=O)n(CCCl)nnc12,T/C,[6],56 % of control and 64 % of control
same,T/C,"dose: 12.5 mg/kg/injection, schedule: Q04DX003 (sc), vehicle: suspension in saline",80 % of control
same,T/C,[12],23 % of control and 40 % of control
same,T/C,"dose: 25.0 mg/kg/injection, schedule: Q04DX003 (sc), vehicle: suspension in saline",49 % of control
same,T/C,[13],3 % of control and 19 % of control
same,T/C,"dose: 50.0 mg/kg/injection, schedule: Q04DX003 (sc), vehicle: suspension in saline",18 % of control
same,T/C,"dose: 100.0 mg/kg/injection, schedule: Q04DX003 (sc), vehicle: saline",7 % of control
OCCN1CCN(CC/C=C2/c3ccccc3Sc3ccc(Cl)cc32)CC1,T/C,[5],78 % of control
same,T/C,[6],68 % of control
same,T/C,[12],52 % of control
same,T/C,[13],43 % of control
C=C(C)C(=NC(C)(C)C)Nc1ccccc1,T/C,"dose: 50.0 mg/kg/injection, schedule: Q04DX003 (sc), vehicle: saline with Tween-80",62 % of control
same,T/C,"dose: 200.0 mg/kg/injection, schedule: Q04DX003 (sc), vehicle: saline with Tween-80",34 % of control
C[C@]12CCC(=O)C=C1CC[C@@H]1[C@@H]2[C@@H](O)C[C@@]2(C)[C@H]1CC[C@]2(O)C(=O)CO,T/C,[7],40 % of control
Cc1cc(N2C(=O)CCSC2=S)ccc1Cl,T/C,"dose: 75.0 mg/kg/injection, schedule: Q04DX003 (sc), vehicle: Klucel (hydroxypropylcellulose) (HPC)",60 % of control
same,T/C,"dose: 150.0 mg/kg/injection, schedule: Q04DX003 (sc), vehicle: Klucel (hydroxypropylcellulose) (HPC)",111 % of control
same,T/C,[7],62 % of control
same,T/C,[8],75 % of control

# Source: PubChem BioAssay AID264 (DTP/NCI, 2004)
